# Measured values published in patent publication US20250205342A1, “IRAK DEGRADERS AND USES THEREOF” (Kymera Therapeutics, Inc., priority 2022, published 2025).
# Key:
# IRAK4 [1] = target: T1, IRAK4 (Homo sapiens, UniProt Q9NWZ3); assay: IRAK4 degradation in OCI-LY10 (MSD, Meso Scale Discovery); type: cell-based; parameters: endogenous in cells; host or cells: OCI-LY10; settings: OCI-LY10 cells, 24 h
# T1 sequence (Q9NWZ3 1-460): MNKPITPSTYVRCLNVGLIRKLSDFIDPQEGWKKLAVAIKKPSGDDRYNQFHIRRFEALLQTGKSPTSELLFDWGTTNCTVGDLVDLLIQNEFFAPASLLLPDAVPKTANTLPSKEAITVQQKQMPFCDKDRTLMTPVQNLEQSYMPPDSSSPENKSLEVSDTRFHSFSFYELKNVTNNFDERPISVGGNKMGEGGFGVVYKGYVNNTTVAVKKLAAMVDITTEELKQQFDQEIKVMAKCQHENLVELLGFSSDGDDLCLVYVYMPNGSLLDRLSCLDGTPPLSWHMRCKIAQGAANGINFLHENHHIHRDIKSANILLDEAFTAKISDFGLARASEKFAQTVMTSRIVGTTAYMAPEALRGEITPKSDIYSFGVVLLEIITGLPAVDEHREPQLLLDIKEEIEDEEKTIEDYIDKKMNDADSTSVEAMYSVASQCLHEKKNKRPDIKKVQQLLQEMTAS
# Method: Degradation of IRAK4 in OCI-LY10 was quantitatively measured using Meso Scale Discovery technology. OCI-LY10 cells were seeded in 96-well plates (Corning 3799) with a density of 300,000 cells per well in 100 μL fresh media. Compounds were then added to the assay plates with a final top concentration of 1 to 10 μM in a 1:3 dilution series with total of 8 doses. The assay plates were then incubated for 4 to 24 hours at 37° C. under 5% CO2. The assay plates were then centrifuged for 5 minutes and the cell pellets were treated with 100 μL/well RIPA lysis buffer (Boston BioProducts BP-115D) with proteinase inhibitors. To prepare MSD assay plates (Meso Scale Discovery Catalog number L15XA-3), the plates were coated with 2 ug/mL capture antibody (mouse Anti-IRAK4 antibody [2H9], ab119942) in PBS, at 40 μL/well. The plates were then incubated overnight at […], washed 3 times with 150 μL/well TBST buffer (Cell Signaling Technology, Catalog number 9997S) and blocked with 150 μL/well blocking buffer (Meso Scale Discovery Catalog number R^93BA-4). Cell lysates were then added to MSD assay plates and the plates were incubated at room temperature for 1 hour. The plates were then washed 3 times with 150 μL/well TBST buffer and 25 μL/well primary detection antibody (rabbit Anti-IRAK4 antibody [Y279], from Abcam. Catalog number ab32511, 1 μg/mL). The assay plates were then incubated at room temperature for 1 hour, washed 3 times with 150 μL/well TBST buffer and 25 μL/well secondary detection antibody, SULFO-TAG anti-rabbit antibody were added (anti-rabbit antibody from Meso Scale Discovery, Catalog number R^32AB-1, 1 μg/mL). The assay plates were then incubated at room temperature for 1 hour, washed 3 times with 150 μL/well TBST buffer, and 150 μL/well MSD reading buffer (Meso Scale Discovery catalog number R^92TC-2) was added. The plates were then analyzed by a MSD reader (Meso Scale Discovery, Model Quick Plex SQ 120). The data was then analyzed by software Prism 7.0 from GraphPad and the dose-depended IRAK4 degradation were fit using a three-parameter logistic equation to calculate DC50.
# (§1) IRAK4 MSD degradation in OCI-LY10 results at 4 and 24 hrs and hPBMC at 20 hrs for compounds of the invention are presented in Table 3. The letter codes for IRAK4 DC50 include: A (<0.1 μM), B (0.1-1.0 μM), C(>1.0-10.0 μM), D (>10.0 μM or not determined).
# IRAK4 [2] = target: T1, IRAK4; assay: hPBMC IRAK4 degradation flow assay (monocytes); type: cell-based; parameters: endogenous in cells; host or cells: human PBMCs (monocytes, CD14 positive gate); settings: CD14 positive monocytes, 20 h, read-out: hPBMC monocyte DC50 at 20 h
# Method: In the hPBMC IRAK4 degradation flow assay, frozen PBMCs were thawed into RPMI with 10% FBS and allowed to recover. On the same day as thawed, PBMCs were plated in 96 well plate, 90 μL per well. Compound plates were prepared and a 10 point, 5-fold dilution was performed with a final DMSO concentration of 0.1%. Compound 10 μL per well was added, sealed and incubated at 37° C., 5% CO2 for 20 hours (for 4 hour treatment, compounds were prepared and added the following day). Following the treatment incubation period (day 1), 1.6% PFA was added to PBMC plate and placed on plate shaker for 30 seconds and incubated for 10 mins at room temperature. Cells were spun down and washed two times with PBS/0.5% BSA, aspirated to pellet and placed into −80° C. freezer until further processing for flow. On the flow run day, PBMC plates were thawed and samples were transferred to PCR plates. The pre-perm staining cocktail (CD3 Ax488/CD8 BUV805/CD14 BUV395/CD16/56 BV711/CD19 BV785) was added to samples and incubated for 30 minutes at room temperature. Samples were washed two times and permeabilized with methanol for 10 minutes at 4° C. Samples were washed two times and the post-perm staining cocktail (CD4 PE/IRAK4 Ax647 BD #560315) was added and incubated for 30 minutes at room temperature. Samples were washed two times with PBS/BSA and run on a BD LSRFortessa. Mononuclear cells are gated by SSCH/FSCH and single cells. Monocytes are then gated through CD14 positive gate and lymphocytes are gated through CD14 negative gate. To determine absolute DC50 and max degradation values, MFI values were normalized to DMSO max and 20 hour 10 µM min control. Twenty hour dose curves were calculated using a 4 parameter logistic regression curve fit, no constraints (Top doses were removed if hook effects were observed and the bottom was constrained to 0).
# as §1
SMILES,DC50 (IRAK4 [1]) [µM],DC50 (IRAK4 [2]) [µM]
COC(=O)Cn1cc(NC(=O)c2cccc(-c3cncc4cc(CCCCCCCCCNC[C@H]5CC[C@H](n6cc7cc(NC(=O)c8cccc(C(F)(F)F)n8)c(C(C)(C)O)cc7n6)CC5)ccc34)c2)ccc1=O [Compound I-55],> 10,> 10
O=C(O)Cn1cc(NC(=O)c2cccc(-c3cncc(CCCCCCNC[C@H]4CC[C@H](n5cc(NC(=O)c6cnn7ccc(N8C[C@H]9C[C@@H]8CO9)nc67)c(C(F)F)n5)CC4)c3)c2)ccc1=O [Compound I-92],> 10,> 10
COc1cc2nn([C@H]3CC[C@H](CNCCOc4cncc(N5CCC[C@H](C(=O)Nc6ccc(=O)n(CC(=O)O)c6)C5)c4)CC3)cc2cc1NC(=O)c1cccc(C(F)(F)F)n1 [Compound I-29],> 10,> 10
CCOC(=O)Cn1cc(NC(=O)[C@H]2CCCN(c3cncc(NCCNC[C@H]4CC[C@H](n5cc(NC(=O)c6cnn7ccc(N8C[C@H]9C[C@@H]8CO9)nc67)c(C(F)F)n5)CC4)c3)C2)ccc1=O [Compound I-16],> 10,> 10
COc1cc2nn([C@H]3CC[C@H](CNCCCCc4cncc(N5CCC[C@H](C(=O)Nc6ccc(=O)n(CC(=O)O)c6)C5)c4)CC3)cc2cc1NC(=O)c1cccc(C(F)(F)F)n1 [Compound I-25],> 10,> 10
CCOC(=O)Cn1cc(NC(=O)[C@H]2CCCN(c3cncc(C4CCN(C[C@H]5CC[C@H](n6cc(NC(=O)c7cnn8ccc(N9C[C@H]%10C[C@@H]9CO%10)nc78)c(C(F)F)n6)CC5)CC4)c3)C2)ccc1=O [Compound I-18],> 10,1 to 10
CCOC(=O)Cn1cc(NC(=O)c2cc(CCCNC[C@H]3CC[C@H](n4cc5cc(NC(=O)c6cccc(C(F)(F)F)n6)c(C(C)(C)O)cc5n4)CC3)cc(-c3cccnc3)c2)ccc1=O [Compound I-82],> 10,> 10
O=C(O)Cn1cc(NC(=O)[C@H]2CCCN(c3cncc(OCCOCCOCCNC[C@H]4CC[C@H](n5cc(NC(=O)c6cnn7ccc(N8C[C@H]9C[C@@H]8CO9)nc67)c(C(F)F)n5)CC4)c3)C2)ccc1=O [Compound I-44],> 10,> 10
CCOC(=O)Cn1cc(NC(=O)[C@H]2CCCN(c3cncc(OCCOCCOCCOCCOCCNC[C@H]4CC[C@H](n5cc6cc(NC(=O)c7cccc(C(F)(F)F)c7)c(OC)cc6n5)CC4)c3)C2)ccc1=O [Compound I-43],> 10,1 to 10
CCOC(=O)Cn1cc(NC(=O)C2CCCN(c3cncc(N4CCC(CN(C)C[C@H]5CC[C@H](n6cc7cc(NC(=O)c8cccc(C(F)(F)F)n8)c(OC)cc7n6)CC5)CC4)c3)C2)ccc1=O (stereo partly shown) [Compound I-20],> 10,> 10
COc1cc2nn([C@H]3CC[C@H](CNCCOCCOCCOCCOCCOc4cncc(N5CCC[C@H](C(=O)Nc6ccc(=O)n(CC(=O)O)c6)C5)c4)CC3)cc2cc1NC(=O)c1cccc(C(F)(F)F)n1 [Compound I-38],> 10,1 to 10
CCOC(=O)Cn1cc(NC(=O)[C@H]2CCCN(c3cncc(NCCOCCOCCNC[C@H]4CC[C@H](n5cc(NC(=O)c6cnn7ccc(N8C[C@H]9C[C@@H]8CO9)nc67)c(C(F)F)n5)CC4)c3)C2)ccc1=O [Compound I-15],> 10,> 10
O=C(O)Cn1cc(NC(=O)[C@H]2CCCN(c3cncc(CCCCCCNC[C@H]4CC[C@H](n5cc(NC(=O)c6cnn7ccc(N8C[C@H]9C[C@@H]8CO9)nc67)c(C(F)F)n5)CC4)c3)C2)ccc1=O [Compound I-27],> 10,> 10
CCOC(=O)Cn1cc(NC(=O)c2cc(CCCNC[C@H]3CC[C@H](n4cc(NC(=O)c5cnn6ccc(N7C[C@H]8C[C@@H]7CO8)nc56)c(C(F)F)n4)CC3)cc(-c3cccnc3)c2)ccc1=O [Compound I-83],> 10,> 10
CC(C)(O)c1cc2nn([C@H]3CC[C@H](CNCCCCCCCCCc4cncc(-c5cccc(C(=O)Nc6ccc(=O)n(CC(=O)O)c6)c5)c4)CC3)cc2cc1NC(=O)c1cccc(C(F)(F)F)n1 [Compound I-84],> 10,1 to 10
CCOC(=O)Cn1cc(NC(=O)c2ccc(-c3ccc(CCCCCCCCCNC[C@H]4CC[C@H](n5cc(NC(=O)c6cnn7ccc(N8C[C@H]9C[C@@H]8CO9)nc67)c(C(F)F)n5)CC4)cc3)cc2OC)ccc1=O [Compound I-67],> 10,> 10
O=C(O)Cn1cc(NC(=O)c2cc(CCCCCCCCCNC[C@H]3CC[C@H](n4cc(NC(=O)c5cnn6ccc(N7C[C@H]8C[C@@H]7CO8)nc56)c(C(F)F)n4)CC3)cc(-c3cccnc3)c2)ccc1=O [Compound I-74],> 10,> 10
CC(C)(O)c1cc2nn([C@H]3CC[C@H](CNCCCCCCc4ccc5c(-c6cccc(C(=O)Nc7ccc(=O)n(CC(=O)O)c7)c6)cncc5c4)CC3)cc2cc1NC(=O)c1cccc(C(F)(F)F)n1 [Compound I-52],> 10,> 10
"CCOC(=O)Cn1cc(NC(=O)c2cccc(-c3cncc(CCCCCCCCCNC[C@H]4CC[C@H](n5cc6cc(NC(=O)c7cccc(C(F)(F)F)n7)c(C(C)(C)O)cc6n5)CC4)c3)c2)ccc1=O [Compound I-88, Ethyl 2-[5-[[3-[5-[9-[4-[6-(1-hydroxy-1-methyl-ethyl)—5-[[6-(trifluoromethyl)pyridine-2-carbonyl]amino]indazol-2-yl]cyclohexyl]methylamino]nonyl]-3-pyridyl]benzoyl]amino]-2-oxo-1-pyridyl acetate]",1 to 10,0.1 to 1
CCOC(=O)Cn1cc(NC(=O)[C@H]2CCCN(c3cncc(CCCCNC[C@H]4CC[C@H](n5cc6cc(NC(=O)c7cccc(C(F)(F)F)n7)c(OC)cc6n5)CC4)c3)C2)ccc1=O [Compound I-31],> 10,> 10
CCOC(=O)Cn1cc(NC(=O)c2cccc3c2ccn3CCCCCCNC[C@H]2CC[C@H](n3cc4cc(NC(=O)c5cccc(C(F)(F)F)n5)c(C(C)(C)O)cc4n3)CC2)ccc1=O [Compound I-71],> 10,> 10
COc1cc2nn([C@H]3CC[C@H](CNCCOCCOCCNc4cncc(N5CCC[C@H](C(=O)Nc6ccc(=O)n(CC(=O)O)c6)C5)c4)CC3)cc2cc1NC(=O)c1cccc(C(F)(F)F)n1 [Compound I-1],> 10,1 to 10
COC(=O)Cn1cc(NC(=O)c2cccc(-c3cncc4c(CCCCCCCCCNC[C@H]5CC[C@H](n6cc7cc(NC(=O)c8cccc(C(F)(F)F)n8)c(C(C)(C)O)cc7n6)CC5)cccc34)c2)ccc1=O [Compound I-54],1 to 10,1 to 10
